35 molecules from patent US6579881B2 (Eisai Co., Ltd., priority 1997, dated 2003) can be followed below.

Counter-ions that a name gives are not always drawn.

One assay has as its target T1, serotonin 1A receptor (Rattus norvegicus, UniProt P19327).
T1 construct: To the receptor fraction of the hippocampus were added a test compound and 0.5 nM of [^3H]; 8-hydroxy-dipropylaminotetralin; from tissue; host or cells: SD rat hippocampus, membrane (receptor) fraction
T1 sequence (P19327 1-422): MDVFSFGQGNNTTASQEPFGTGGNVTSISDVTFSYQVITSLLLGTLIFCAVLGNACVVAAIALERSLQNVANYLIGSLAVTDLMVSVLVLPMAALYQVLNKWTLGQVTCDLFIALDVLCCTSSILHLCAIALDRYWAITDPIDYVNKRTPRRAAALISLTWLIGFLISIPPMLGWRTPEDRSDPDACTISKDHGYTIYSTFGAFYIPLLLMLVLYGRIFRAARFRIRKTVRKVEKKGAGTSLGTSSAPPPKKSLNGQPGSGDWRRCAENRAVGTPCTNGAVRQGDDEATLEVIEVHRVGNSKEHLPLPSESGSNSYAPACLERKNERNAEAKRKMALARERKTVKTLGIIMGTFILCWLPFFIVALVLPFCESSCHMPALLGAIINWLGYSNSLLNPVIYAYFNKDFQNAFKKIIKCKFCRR
Description: Binding test on [3H] 8-hydroxy-dipropylaminotetralin (serotonin 1A receptor). The note with it: [3H] 8-OH-DPAT 0.5 nM, receptor fraction of rat hippocampus; read-out: 5HT1a.

The next assay concerns the target serotonin 2 receptor (Rattus norvegicus, UniProt P14842). Description: Binding test on [3H] ketanserin (serotonin 2 receptor). The note with it: [3H] ketanserin 0.3 nM, receptor fraction of rat cerebral cortex; read-out: 5HT2.

serotonin 2 receptor, sequence (P14842 whole entry): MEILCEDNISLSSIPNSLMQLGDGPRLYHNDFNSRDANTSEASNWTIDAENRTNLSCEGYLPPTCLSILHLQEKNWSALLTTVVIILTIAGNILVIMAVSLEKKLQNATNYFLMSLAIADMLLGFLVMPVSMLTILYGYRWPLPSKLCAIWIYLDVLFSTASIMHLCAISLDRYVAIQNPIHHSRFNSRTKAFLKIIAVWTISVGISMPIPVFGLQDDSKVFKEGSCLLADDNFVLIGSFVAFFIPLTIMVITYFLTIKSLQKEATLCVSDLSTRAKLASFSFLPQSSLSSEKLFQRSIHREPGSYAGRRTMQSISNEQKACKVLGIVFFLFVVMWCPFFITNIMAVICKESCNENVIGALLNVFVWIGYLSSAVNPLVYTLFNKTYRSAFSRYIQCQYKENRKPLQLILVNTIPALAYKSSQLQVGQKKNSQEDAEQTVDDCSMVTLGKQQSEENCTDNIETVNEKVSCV
Description for serotonin 1A receptor: 3) [^3H] 8-Hydroxy-dipropylaminotetralin (8-OH-DPAT).
(§1) Use was made of SD rats aged 6 to 8 weeks.
(§2) The rats were sacrificed by dcapitation to extirpate the cerebra.
Each mixture was homogenized by using a Teflon glass homogenizer and centrifuged at 1,000×g for 10 min. The supernatant thus obtained was further centrifuged at 20,000×g for 20 min. The obtained precipitate was re-suspended in 50 times (based on the intial wet weight; in the case of the hippocampus) or 10 times (in the case of the cortex) as much a 50 mM Tris hydrochloride (pH 7.4) and incubated at room temperature for 30 min. After centrifuging at 20,000×g for 20 min, the obtained precipitate was further suspended and centrifuged twice each in the same manner. The precipitate thus obtained was suspended in 100 times (based on the initial wet weight; in the case of the hippocampus) or 20 times (in the case of the cortex) as much a 50 mM Tris hydrochloride solution (pH 7.4) to thereby give a receptor fraction. This receptor fraction was stored at −80° C. until using.
(Binding Test on [^3H] 8-hydroxy-dipropylaminotetralin)
To the receptor fraction of the hippocampus were added a test compound and 0.5 nM of [^3H] 8-hydroxy-dipropylaminotetralin and the resultant mixture was incubated at room temperature for 30 min. Next, it was filtered through a glass filter with the use of a cell harvester. After washing the glass filter with 50 mM Tris hydrochloride (pH 7.4), the radioactivity of the receptor was measured with a liquid scintillation counter. The binding detected in the presence of 10 μM of serotonin binoxalate was referred to as the nonspecific binding.
(§3) IC50 was calculated by the probit method, while Ki was determined in accordance with the following formula:
(§4) wherein c represents the concentration of the radioisotope-labeled compound, and Kd represents the dissociation constant of the radioisotope-labeled compound with respect to the receptor determined by Scatchard's analysis.
Description for serotonin 2 receptor: as §1, §2
The hippocampus was mixed with 50 times (on the wet weight basis) as much a 0.32 M sucrose solution while the cortex was mixed with 10 times as much the same solution. Each mixture was homogenized by using a Teflon glass homogenizer and centrifuged at 1,000×g for 10 min. The supernatant thus obtained was further centrifuged at 20,000×g for 20 min. The obtained precipitate was re-suspended in 50 times (based on the intial wet weight; in the case of the hippocampus) or 10 times (in the case of the cortex) as much a 50 mM Tris hydrochloride (pH 7.4) and incubated at room temperature for 30 min. After centrifuging at 20,000×g for 20 min, the obtained precipitate was further suspended and centrifuged twice each in the same manner. The precipitate thus obtained was suspended in 100 times (based on the initial wet weight; in the case of the hippocampus) or 20 times (in the case of the cortex) as much a 50 mM Tris hydrochloride solution (pH 7.4) to thereby give a receptor fraction. This receptor fraction was stored at −80° C. until using.
(Binding Test on [^3H] Ketanserin)
Next, it was filtered through a glass filter with the use of a cell harvester. After washing the glass filter with 50 mM Tris hydrochloride (pH 7.4), the radioactivity of the receptor was measured with a liquid scintillation counter. The binding detected in the presence of 1 μM of methysergide was referred to as the nonspecific binding.
as §3, §4

Take `c1ccc2c(c1)CCN2C1CCN(CCCOc2ccc3c(c2)OCO3)CC1` [Example 78, 1-{1-[3-(3,4-methylenedioxypheoxy)propyl]piperidin-4-yl}indoline]: the Ki at serotonin 1A receptor amounted to 2.4 nM; at serotonin 2 receptor, 29.6 nM.
Consider `CC(=O)Nc1ccc2c(c1)N(C1CCN(CCc3ccc(F)cc3F)CC1)CC2` [Example 222, 1-[1-(2,4-difluorophenethyl)piperidin-4-yl]-6-acetamidoindoline], for which the Ki on serotonin 1A receptor was 0.04 nM; on serotonin 2 receptor it was 18.1 nM.
`OCc1ccc(CCN2CCC(N3CCc4ccccc43)CC2)cn1` [Example 55, 1-{1-[2-(2-hydroxymethylpyridin5-yl)ethyl]piperidin-4-yl}indoline]: the Ki turned out to be 41.9 nM on serotonin 1A receptor and 17.8 nM at serotonin 2 receptor.
Consider `Fc1ccc(CCN2CCC(N3CCc4ccccc43)CC2)c(F)n1` [Example 57, 1-[1-(2,6-difluoro-3-pyridylethyl)piperidin-4-yl]indoline], for which the Ki on serotonin 1A receptor is 14.6 nM; on serotonin 2 receptor it was 1.1 nM.
On to `NC(=O)NCc1ccc2c(c1)N(C1CCN(CCc3ccc(F)cc3)CC1)CC2` [Example 161, 1-[1-(4-fluorophenethyl)piperidin-4-yl]-6-ureidomethylindoline], for which the Ki amounted to 3.23 nM on serotonin 1A receptor and 0.43 nM on serotonin 2 receptor.
In the case of `Fc1ccc(CCN2CCC(N3CCc4ccccc43)CC2)c(F)c1` [Example 10, 1-[1-(2,4-difluorophenethyl)piperidin-4-yl]indoline], the results for the Ki on serotonin 1A receptor and at serotonin 2 receptor were 8.1 nM and 6 nM, respectively.
As for `N#Cc1ccc(CCN2CCC(N3CCc4ccccc43)CC2)cn1` [Example 54, 1-{1-[2-(2-cyanopyridin-5-yl)ethyl]piperidin-4-yl}indoline], the Ki was 7.1 nM on serotonin 1A receptor and 10.3 nM on serotonin 2 receptor.
In the case of `Fc1ccc(CCN2CCC(N3CCc4ccc(F)nc43)CC2)cc1` [Example 261, 1-[1-(4-fluorophenethyl)piperidin-4-yl]-6-fluoro-7-azaindoline], the Ki on serotonin 1A receptor was 1.5 nM; on serotonin 2 receptor, 5.3 nM.
With `O=C(CCCN1CCC(N2CCc3ccccc32)CC1)c1ccc(F)cc1` [Example 72, 1-{1-[4-(4-fluorophenyl)-4-oxobutyl]piperidin-4-yl}indoline], the results for the Ki at serotonin 1A receptor and on serotonin 2 receptor were 25.9 nM and 21.1 nM, respectively.
Take `OC1(c2ccc3c(c2)N(C2CCN(CCc4ccc(F)cc4)CC2)CC3)CCC1` [Example 140, 1-[1-(4-fluorophenethyl)piperidin-4-yl]-6-(1-hydroxycyclobutyl)indoline]: the Ki stood at 6.23 nM at serotonin 1A receptor and 35.1 nM on serotonin 2 receptor.
For `COc1ccc2c(c1)N(C1CCN(CCc3ccc(S(N)(=O)=O)cc3)CC1)CC2` [Example 230, 1-[1-(4-sulfamoylphenethyl)piperidin-4-yl]-6-methoxyindoline], the values for the Ki at serotonin 1A receptor and at serotonin 2 receptor were 13.3 nM and greater than 200 nM, respectively.
Consider `CCN1CCC(N2CC(Cc3ccc(F)cc3)c3ccccc32)CC1` (stereo not shown) [Example 244, 1-(1-ethylpiperidin-4-yl)-3-(4-fluorobenzyl)indoline], for which the values for the Ki on serotonin 1A receptor and on serotonin 2 receptor were greater than 200 nM and 2.5 nM, respectively.
`CCN1CCC(N2CC(c3ccc(OC)cc3)c3ccccc32)CC1` (stereo not shown) [Example 241, 1-(1-ethylpiperidin-4-yl)-3-(4-methoxyphenyl)indoline]: the results for the Ki on serotonin 1A receptor and at serotonin 2 receptor were 360 nM and 1660 nM, respectively.
On to `O=C(CCl)NCc1ccc(CCN2CCC(N3CCc4ccccc43)CC2)cc1` [Example 37, 1-[1-(4-chloroacetamidomethylphenethyl)piperidin-4-yl]indoline], for which the Ki at serotonin 1A receptor was determined as 4.6 nM; at serotonin 2 receptor, 14.8 nM.
With `OCc1ccc(CCN2CCC(N3CCc4ccccc43)CC2)cc1CO` [Example 45, 1-{1-[3,4-di(hydroxymethyl)phenethyl]piperidin-4-yl}indoline], the Ki is 15.2 nM at serotonin 1A receptor and 6.4 nM on serotonin 2 receptor.
On to `OCc1cncc(CCN2CCC(N3CCc4ccccc43)CC2)c1` [Example 56, 1-{1-[2-(3-hydroxymethylpyridin-5-yl)ethyl]piperidin-4-yl}indoline], for which the figures for the Ki at serotonin 1A receptor and at serotonin 2 receptor were 20.7 nM and 1.7 nM, respectively.
With `OC(c1ccc2c(c1)N(C1CCN(CCc3ccc(F)cc3)CC1)CC2)c1cscn1` (stereo not shown) [Example 195, 1-[1-(4-fluorophenethyl)piperidin-4-yl]-6-[1-(4-thiazolyl)-1-hydroxymethyl]indoline], the Ki at serotonin 1A receptor was 5.73 nM; on serotonin 2 receptor, 1.15 nM.
The matching figures for “1-[1-(4-fluorophenethyl)piperidin-4-yl]-6-(1,2,3-triazol-1-yl)methylindoline and 1-[1-(4-fluorophenethyl)piperidin-4-yl]-6-(1,2,3-triazol-2-yl)methylindoline [Example 212]”: 0.82 nM and 0.36 nM.
On the same counts, the results for `O=C(Cc1ccc2ccn(C3CCN(CCc4ccc(F)cc4)CC3)c2c1)NCCc1ccccn1` [Example 315, 1-[1-(4-fluorophenethyl)piperidin-4-yl]-6-[2-(pyridin-2-yl)ethyl]carbamoylmethylindole Oxalate] are 6.74 nM and 1.18 nM.
Consider `CN(C)c1ccc(C(O)c2ccc3c(c2)N(C2CCN(CCc4ccc(F)cc4)CC2)CC3)cn1` (stereo not shown) [Example 191, 1-[1-(4-fluorophenethyl)piperidin-4-yl]-6-[1-hydroxy-1-(2-dimethylaminopyridin-5-yl)methyl]indoline], for which the Ki on serotonin 1A receptor turned out to be 29.1 nM; at serotonin 2 receptor, 0.32 nM.
Regarding `Fc1ccc(CCN2CCC(N3CCc4ccc(Cl)cc43)CC2)cc1` [Example 102, 1-[1-(4-fluorophenethyl)piperidin-4-yl]-6-chloroindoline], the figures for the Ki on serotonin 1A receptor and at serotonin 2 receptor were 2.7 nM and 28.4 nM, respectively.
On to `NC(=O)Cc1ccc2c(c1)N(C1CCN(CCc3ccc(F)cc3F)CC1)CC2` [Example 225, 1-[1-(2,4-difluorophenethyl)piperidin-4-yl]-6-carbamoylmethylindoline], for which the figures for the Ki on serotonin 1A receptor and at serotonin 2 receptor were 5.74 nM and 7.61 nM, respectively.
Turning to `COc1ccc(CC2CN(C3CCN(CCc4ccc(F)cc4)CC3)c3ccccc32)cc1` (stereo not shown) [Example 215, 1-[1-(4-fluorophenethyl)piperidin-4-yl]-3-(4-methoxybenzyl)indoline], the Ki came out at 126 nM on serotonin 1A receptor and 1 nM on serotonin 2 receptor.
On the same counts, the results for `CN1CCC(N2CCc3ccc(NS(=O)(=O)c4ccc(F)cc4)cc32)CC1` [Example 237, 1-(1-methylpiperidin-4-yl)-6-(4-fluorobenzenesulfonylamino)indoline] are 30.4 nM and greater than 200 nM.
Consider `CCN1CCC(N2CC(CCc3cccc(OC)c3)c3ccccc32)CC1` (stereo not shown) [Example 246, 1-(1-ethylpiperidin-4-yl)-3-(3-methoxyphenethyl)indoline], for which the Ki at serotonin 1A receptor was greater than 200 nM; on serotonin 2 receptor it was 60 nM.
As to `CNc1ccc2c(c1)N(C1CCN(CCc3ccc(F)cc3)CC1)CC2` [Example 111, 1-[1-(4-fluorophenethyl)piperidin-4-yl]-6-methylaminoindoline], the Ki stood at 5.5 nM at serotonin 1A receptor and 74.2 nM on serotonin 2 receptor.
As for `CC(=O)NCc1ccc2c(c1)N(C1CCN(CCCOc3ccc(F)cc3)CC1)CC2` [Example 232, 1-[1-(4-fluorophenoxypropyl)piperidin-4-yl]-6-acetamidomethylindoline], the Ki on serotonin 1A receptor stood at 37.6 nM; on serotonin 2 receptor, 48.2 nM.
Turning to `Nc1ccc2c(c1)N(C1CCN(CCc3ccc(F)cc3)CC1)CC2` [Example 110, 1-[1-(4-fluorophenethyl)piperidin-4-yl]-6-aminoindoline], the Ki was found to be 23.3 nM at serotonin 1A receptor and 16 nM at serotonin 2 receptor.
On to `NC(=O)c1ccc(CCN2CCC(N3CCc4ccccc43)CC2)cc1` [Example 40, 1-[1-(4-carbamoylphenethyl)piperidin-4-yl]indoline], for which the figures for the Ki at serotonin 1A receptor and at serotonin 2 receptor were 43.7 nM and greater than 200 nM, respectively.
The matching figures for `O=C(c1cccnc1)c1ccc2c(c1)N(C1CCN(CCc3ccc(F)cc3)CC1)CC2` [Example 183, 1-[1-(4-fluorophenethyl)piperidin-4-yl]-6-(3-pyridylcarbonyl)indoline]: 1.18 nM and 3.86 nM.
On to `O=C(O)Cc1ccc2c(c1)N(C1CCN(CCc3ccc(F)cc3)CC1)CC2` [Example 146, 1-[1-(4-fluorophenethyl)piperidin-4-yl]-6-carboxymethylindoline], for which the Ki on serotonin 1A receptor is 164 nM; on serotonin 2 receptor it was greater than 200 nM.
With `Fc1ccc(CCCCN2CCC(N3CCc4ccccc43)CC2)cc1` [Example 15, 1-[1-(4-fluorophenylbutyl)piperidin-4-yl]indoline], the Ki on serotonin 1A receptor and on serotonin 2 receptor was 28.6 nM each time.
In the case of `COc1ccc2c(c1)CCN2C1CCN(CCc2ccc(F)cc2)CC1` [Example 99, 1-[1-(4-fluorophenethyl)piperidin-4-yl]-5-methoxyindoline], the Ki at serotonin 2 receptor worked out at 8.7 nM.
On to `OC[C@@H]1CN(CCc2ccc(F)cc2)CC[C@@H]1N1CCc2ccccc21` (relative stereo) [Example 81, cis-1-[1-(4-fluorophenethyl)-3-hydroxymethylpiperidin-4-yl]indoline], for which, on serotonin 1A receptor, the Ki is 44.3 nM.
In the case of `O=C(Cc1ccc2c(c1)N(C1CCN(CCc3ccc(F)cc3)CC1)CC2)NC1CC1` [Example 154, 1-[1-(4-fluorophenethyl)piperidin-4-yl]-6-(cyclopropylcarbamoylmethyl)indoline], the Ki at serotonin 1A receptor worked out at 6.52 nM.
